Measurements reported in publication PMC10952572, “Improved PIEZO1 agonism through 4‐benzoic acid modification of Yoda1” (British Journal of Pharmacology, 2023).

Legend:
mPIEZO1 = target: T1, mPIEZO1 (Mus musculus, UniProt E2JF22); assay: Pre-treatment with analogue before Yoda1 stimulus, Ca2+ assay in mPIEZO1-TREx cells; format: cell-based; settings: for 0.5 μM Yoda1-evoked peak ΔCa2+i (ΔF340/380), median fold difference compared to DMSO pretreatment: mPIEZO1-TREx, 10 μM compound 30 min pretreatment before 0.5 μM Yoda1
T1 construct: expressed in transfected cells

human TRPC5 = target: T2, human TRPC5 (Homo sapiens, UniProt Q9UL62); assay: Intracellular Ca2+ measurement in hTRPC5-TREx cells; format: cell-based; settings: 10 μM
T2 construct: expressed in transfected cells
T2 sequence (Q9UL62 1-973): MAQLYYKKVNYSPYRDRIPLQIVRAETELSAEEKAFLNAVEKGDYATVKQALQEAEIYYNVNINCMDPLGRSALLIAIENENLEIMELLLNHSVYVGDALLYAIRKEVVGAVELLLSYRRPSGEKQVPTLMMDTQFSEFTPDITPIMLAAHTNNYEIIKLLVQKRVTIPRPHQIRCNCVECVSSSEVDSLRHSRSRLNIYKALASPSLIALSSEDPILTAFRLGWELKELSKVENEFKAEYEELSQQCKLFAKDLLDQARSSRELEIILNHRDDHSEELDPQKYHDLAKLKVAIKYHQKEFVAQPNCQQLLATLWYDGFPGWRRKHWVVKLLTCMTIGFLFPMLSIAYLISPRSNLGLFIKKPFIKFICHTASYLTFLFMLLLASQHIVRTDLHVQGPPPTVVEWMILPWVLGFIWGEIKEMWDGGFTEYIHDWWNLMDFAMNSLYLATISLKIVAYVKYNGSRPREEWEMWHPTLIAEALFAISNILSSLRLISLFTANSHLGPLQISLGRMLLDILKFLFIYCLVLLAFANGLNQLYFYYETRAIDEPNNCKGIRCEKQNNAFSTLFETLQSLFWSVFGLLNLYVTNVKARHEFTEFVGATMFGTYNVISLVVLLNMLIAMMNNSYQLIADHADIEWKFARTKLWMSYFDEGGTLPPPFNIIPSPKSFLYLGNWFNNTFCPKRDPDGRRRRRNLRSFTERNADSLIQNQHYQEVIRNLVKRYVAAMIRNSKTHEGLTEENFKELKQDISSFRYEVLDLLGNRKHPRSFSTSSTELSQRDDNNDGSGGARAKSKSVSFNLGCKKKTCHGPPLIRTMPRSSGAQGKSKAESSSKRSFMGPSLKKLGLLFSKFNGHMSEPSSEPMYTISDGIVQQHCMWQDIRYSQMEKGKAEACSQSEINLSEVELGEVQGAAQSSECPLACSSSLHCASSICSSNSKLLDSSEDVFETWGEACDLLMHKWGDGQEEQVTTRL
Protocol: HEK T‐REx™ 293 cells stably expressing tetracycline‐regulated human TRPC5 have been described previously (Zeng et al., [2004]). For the TRPC5‐expressing cells, selection was achieved by including 5 μg·ml^−1 blasticidin and 400 μg·ml^−1 zeocin in the cell medium. To induce expression, cells were incubated with 1 μg·ml^−1 tetracycline for 24 h prior to experiments. These cells are referred to as hTRPC5‐TREx.
HEK 293‐TREx cells and their stably transfected derivatives or transiently transfected HEK 293 or HeLa cells were seeded at a density of 7.5 × 10^4 cells per well into poly‐D‐lysine‐coated 96‐well plates. The plates were either commercially pre‐coated with poly‐D‐lysine (Greiner Bio‐One #655946) or (Greiner Bio‐One #655090) were coated in‐house with 35 μl of a 10 μg·ml^−1 poly‐D‐lysine (Bio‐Techne, Cultrex # 3439‐100‐01) in sterile deionised water per well for at least 24 h and rinsed three times with 100 μl per well sterile D‐PBS before addition of cells. HUVECs were seeded into tissue culture‐treated 96‐well plates (Greiner Bio‐One #655090) at a density of either 2.5 × 10^4 cells 24 h before experimentation or 1.25 × 10^4 cells 48 h before experimentation. Cells were incubated with 2 μM Fura‐2‐AM (Molecular Probes™) in the presence of 0.01% (wt./vol.) pluronic F127 (Sigma‐Aldrich #P2443) in standard bath solution (SBS) for 1 h at 37°C. Cells were washed with SBS for 30 min at room temperature. Alternatively, if inhibitors were being tested, these were added at this time, immediately following a wash in SBS. (−)‐Englerin A (Akbulut et al., [2015]) was used in SBS containing 0.01% pluronic acid as a dispersing agent to minimise aggregation of compound. Unless otherwise stated, the final concentration of DMSO was 0.2% (vol./vol). […] Measurements were made at room temperature on a 96‐well fluorescence plate reader (FlexStation 3, Molecular Devices, Sunnyvale, CA, USA) controlled by SoftMax Pro software v7.0.3. […]

Stability in plasma = format: in vitro ADME; settings: mouse plasma, 1 μM, over 2 h
Protocol: Pooled heparinised mouse plasma was warmed to 37°C for 10 min, mixed and cleared of aggregated protein by centrifugation. Aliquots of the clear supernatant were transferred into the assay plate. Following equilibration to 37°C, biotransformation was initiated by adding and mixing of 1 μM compound solution in a final incubation volume of 300 μl; 25 μl aliquots were removed at 0, 5, 15, 30, 60 and 120 min and quenched in 300 μl ice‐cold acetonitrile containing internal standard. After storing the samples at −20°C for a minimum of 4 h, the protein in the samples was precipitated by centrifugation at 4°C, and the supernatants were analysed by LC–MS/MS to quantify the % input test compound remaining.

T1 sequence (E2JF22 whole entry): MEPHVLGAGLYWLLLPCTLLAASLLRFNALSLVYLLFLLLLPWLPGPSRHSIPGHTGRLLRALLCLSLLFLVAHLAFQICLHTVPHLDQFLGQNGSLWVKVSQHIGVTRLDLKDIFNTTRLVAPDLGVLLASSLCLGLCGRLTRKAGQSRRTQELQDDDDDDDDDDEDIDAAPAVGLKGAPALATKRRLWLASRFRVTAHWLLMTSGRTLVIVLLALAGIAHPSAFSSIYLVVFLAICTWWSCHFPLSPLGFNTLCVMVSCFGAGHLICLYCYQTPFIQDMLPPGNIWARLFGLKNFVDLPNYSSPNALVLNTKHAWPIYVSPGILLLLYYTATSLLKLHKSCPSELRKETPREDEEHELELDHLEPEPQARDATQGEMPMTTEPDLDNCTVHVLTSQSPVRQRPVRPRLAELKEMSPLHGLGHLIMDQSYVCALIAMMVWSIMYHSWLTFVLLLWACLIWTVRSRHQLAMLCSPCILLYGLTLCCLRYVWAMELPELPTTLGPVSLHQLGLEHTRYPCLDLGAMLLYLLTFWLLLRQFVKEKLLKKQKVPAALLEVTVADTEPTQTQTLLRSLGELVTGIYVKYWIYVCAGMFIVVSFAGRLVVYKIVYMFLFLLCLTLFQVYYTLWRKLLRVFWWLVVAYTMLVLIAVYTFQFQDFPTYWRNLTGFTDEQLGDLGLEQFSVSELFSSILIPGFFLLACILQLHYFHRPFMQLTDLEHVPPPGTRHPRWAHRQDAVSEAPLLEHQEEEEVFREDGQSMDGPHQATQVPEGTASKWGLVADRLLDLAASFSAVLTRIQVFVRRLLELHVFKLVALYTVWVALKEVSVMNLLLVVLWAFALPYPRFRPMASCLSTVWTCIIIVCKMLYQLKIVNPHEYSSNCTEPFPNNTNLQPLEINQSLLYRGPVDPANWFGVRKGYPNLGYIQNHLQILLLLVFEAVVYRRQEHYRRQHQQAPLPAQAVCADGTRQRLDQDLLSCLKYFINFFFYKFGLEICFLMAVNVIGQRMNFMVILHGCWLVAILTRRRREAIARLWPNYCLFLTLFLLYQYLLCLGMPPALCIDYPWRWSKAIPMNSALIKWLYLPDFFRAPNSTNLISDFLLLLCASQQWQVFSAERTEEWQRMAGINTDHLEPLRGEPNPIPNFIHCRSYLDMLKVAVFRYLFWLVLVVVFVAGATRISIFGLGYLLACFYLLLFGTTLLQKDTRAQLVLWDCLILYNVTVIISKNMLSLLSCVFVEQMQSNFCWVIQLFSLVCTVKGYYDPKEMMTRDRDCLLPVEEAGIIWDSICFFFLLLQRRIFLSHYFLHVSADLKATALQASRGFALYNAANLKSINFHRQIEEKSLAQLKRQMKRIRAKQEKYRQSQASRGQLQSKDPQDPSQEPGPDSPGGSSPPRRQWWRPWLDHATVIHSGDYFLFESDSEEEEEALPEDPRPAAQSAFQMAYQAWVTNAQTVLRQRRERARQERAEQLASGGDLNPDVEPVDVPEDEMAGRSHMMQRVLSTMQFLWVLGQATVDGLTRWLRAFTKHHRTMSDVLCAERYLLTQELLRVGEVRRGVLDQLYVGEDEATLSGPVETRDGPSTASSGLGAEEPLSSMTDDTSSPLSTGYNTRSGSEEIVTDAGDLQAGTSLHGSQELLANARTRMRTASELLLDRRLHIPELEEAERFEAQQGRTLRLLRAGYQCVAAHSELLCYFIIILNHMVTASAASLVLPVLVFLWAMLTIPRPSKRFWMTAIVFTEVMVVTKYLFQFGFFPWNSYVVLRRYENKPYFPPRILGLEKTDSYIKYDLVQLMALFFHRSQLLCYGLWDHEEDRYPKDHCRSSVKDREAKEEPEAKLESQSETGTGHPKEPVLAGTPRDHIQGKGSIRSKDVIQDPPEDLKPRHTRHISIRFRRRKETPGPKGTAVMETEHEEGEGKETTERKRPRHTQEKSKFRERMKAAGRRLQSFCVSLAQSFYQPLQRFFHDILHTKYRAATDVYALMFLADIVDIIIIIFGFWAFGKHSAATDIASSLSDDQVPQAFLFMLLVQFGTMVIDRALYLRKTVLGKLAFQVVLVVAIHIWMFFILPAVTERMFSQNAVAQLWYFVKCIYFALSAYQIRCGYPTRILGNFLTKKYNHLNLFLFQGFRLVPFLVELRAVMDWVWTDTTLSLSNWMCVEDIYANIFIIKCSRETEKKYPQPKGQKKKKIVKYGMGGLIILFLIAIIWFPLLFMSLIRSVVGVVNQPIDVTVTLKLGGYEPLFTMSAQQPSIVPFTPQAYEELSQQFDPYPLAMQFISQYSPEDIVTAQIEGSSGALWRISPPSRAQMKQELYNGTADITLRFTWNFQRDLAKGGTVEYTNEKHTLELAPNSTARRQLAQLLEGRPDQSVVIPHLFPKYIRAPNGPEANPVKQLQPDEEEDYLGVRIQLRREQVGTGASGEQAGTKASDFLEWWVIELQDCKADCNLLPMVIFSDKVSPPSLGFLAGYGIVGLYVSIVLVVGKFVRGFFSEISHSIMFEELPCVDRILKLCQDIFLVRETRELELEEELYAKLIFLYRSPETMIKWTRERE

With `O=C(O)c1ccccc1-c1nnc(SCc2c(Cl)cccc2Cl)s1` [KC157] the “0.5 μM Yoda1-evoked peak ΔCa2+i (ΔF340/380), median fold difference compared to DMSO pretreatment” value (mPIEZO1) was “+1.2 fold” and the “Inhibition of the action of Yoda1” value (mPIEZO1; mPIEZO1 channels, 10 μM for 30 min prior to Yoda1) was “failed to inhibit the action of Yoda1”.
In the case of `O=C(O)c1ccc(-c2nnc(SCc3c(Cl)cccc3Cl)s2)cc1` [KC159], the “Ca2+ response in cells expressing TRPC5 in place of PIEZO1” value (“Ca2+ response in cells expressing TRPC5” below) (human TRPC5) is reported as “fail to evoke responses”, the Plasma stability (Stability in plasma) is reported as “good stability over 2 h” and the “0.5 μM Yoda1-evoked peak ΔCa2+i (ΔF340/380), median fold difference compared to DMSO pretreatment” value (mPIEZO1) is reported as −2.1 fold.
In the case of `O=C([O-])c1ccc(-c2nnc(SCc3c(Cl)cccc3Cl)s2)cc1.[K+]` [KC289], the “Ca2+ response in cells expressing TRPC5” value (human TRPC5) is reported as “fail to evoke responses”, the Plasma stability (Stability in plasma) is reported as “good stability over 2 h” and the “0.5 μM Yoda1-evoked peak ΔCa2+i (ΔF340/380), median fold difference compared to DMSO pretreatment” value (mPIEZO1) is reported as −2.8 fold.
With `Clc1cccc(Cl)c1CSc1nnc(-c2cnccn2)s1` [Yoda1, 2‐[5‐[[(2,6‐dichlorophenyl)methyl]thio]‐1,3,4‐thiadiazol‐2‐yl]pyrazine] the “Ca2+ response in cells expressing TRPC5” value (human TRPC5) was “fail to evoke responses” and the Plasma stability (Stability in plasma) was “good stability over 2 h”.
